Values joined by “and” are separate entries in the source; they are usually repeats but may differ in a detail not shown here. Equal entries are not always repeated. Where two headings read alike, the source gives them in different places.
Key:
mMOR [1] = target: T1, mMOR (Mus musculus, UniProt P42866); assay: [35S]GTPγS functional assay, mMOR; type: biochemical
T1 construct: expressed in transfected cells

[2] = target: T2, mouse mu opioid receptor (mMOR) (Mus musculus, UniProt P42866); assay: cell-based; type: cell-based; conditions: for Emax: read-out: Gi Emax mMOR
T2 construct: expressed in transfected cells; host or cells: HEK-293T, transient (PEI), with BRET sensor cDNAs

[3] = target: T3, mouse delta opioid receptor (mDOR) (Mus musculus, UniProt P32300); assay: BRET assay, G-protein activation, mDOR; type: cell-based; conditions: for Emax: read-out: G-Protein activation Emax % ± SEM
T3 construct: expressed in transfected cells; host or cells: HEK-293T, transient (PEI), with BRET sensor cDNAs

Y312W-hKOR [4] = target: T4, Y312W-hKOR (Homo sapiens, UniProt P41145, Y312W); assay: cAMP inhibition assay, Y312W-hKOR mutant; type: cell-based; set-up: expressed in transfected cells; host or cells: HEK 293T (inferred from the general cAMP method)
mDOR [5] = target: T5, mDOR (Mus musculus, UniProt P32300); assay: [35S]GTPγS functional assay, mDOR; type: biochemical
T5 construct: expressed in transfected cells

hMOR [6] = target: T6, hMOR (Homo sapiens, UniProt P35372); assay: Tango β-arrestin recruitment assay, hMOR; type: cell-based
T6 construct: expressed in transfected cells; host or cells: HEK 293T (ATCC CRL-11268), transient

hDOR [7] = target: T7, hDOR (Homo sapiens, UniProt P41143); assay: Tango β-arrestin recruitment assay, hDOR; type: cell-based; set-up: expressed in transfected cells; host or cells: HTLA cells expressing TEV fused-beta-Arrestin2; conditions: for Emax: read-out: Arrestin recruitment Emax % ± SEM
mKOR [8] = target: T8, mKOR (Mus musculus, UniProt P33534); assay: [35S]GTPγS functional assay, mKOR; type: biochemical
T8 construct: expressed in transfected cells

[9] = target: T9, rat kappa opioid receptor (rKOR) (Rattus norvegicus, UniProt P34975); assay: BRET assay, arrestin recruitment, rKOR; type: cell-based
T9 construct: expressed in transfected cells; host or cells: HEK-293T, transient (PEI), with BRET sensor cDNAs

Y312W-hKOR [10] = target: T4, Y312W-hKOR; assay: Tango-arrestin recruitment assay, Y312W-hKOR mutant; type: cell-based; set-up: expressed in transfected cells
[11] = target: T3, mouse delta opioid receptor (mDOR); assay: BRET assay, arrestin recruitment, mDOR; type: cell-based; conditions: for EC50: mDOR, BRET; for Emax: read-out: Arrestin recruitment Emax % ± SEM
[12] = target: T9, rat kappa opioid receptor (rKOR); assay: BRET assay, G-protein activation, rKOR; type: cell-based; conditions: for Bias factor toward G-protein, rKOR: BRET assays, against U50,488H as control; for EC50: read-out: Gi EC50 rKOR; for Emax: read-out: Gi Emax rKOR
hDOR [13] = target: T7, hDOR; assay: cAMP inhibition assay, hDOR; type: cell-based; set-up: expressed in transfected cells; conditions: for Emax: read-out: cAMP inhibition Emax % ± SEM
hKOR [14] = target: T10, hKOR (Homo sapiens, UniProt P41145); assay: Tango β-arrestin recruitment assay, hKOR; type: cell-based
T10 construct: expressed in transfected cells; host or cells: HEK 293T (ATCC CRL-11268), transient

hKOR [15] = target: T10, hKOR; assay: cAMP inhibition assay (GloSensor, HEK 293T), hKOR; type: cell-based; conditions: for Emax: HEK-293T, read-out: Gi Emax hKOR; for Bias factor toward G protein, hKOR: cAMP inhibition vs Tango, against U50,488H as control; for EC50: read-out: Gi EC50 hKOR
hMOR [16] = target: T6, hMOR; assay: cell-based; type: cell-based; conditions: for Emax: HEK-293T, read-out: Gi Emax hMOR
[17] = target: T2, mouse mu opioid receptor (mMOR); assay: cell-based; type: cell-based
mKOR [18] = target: T8, mKOR; assay: Radioligand competition binding ([125I]IBNtxA), CHO membranes, mKOR; conditions: vs 125IBNtxA (0.1 nM), mean ± SEM
mMOR [19] = target: T1, mMOR; assay: Radioligand competition binding ([125I]IBNtxA), CHO membranes, mMOR; conditions: vs 125IBNtxA (0.1 nM), mean ± SEM
mDOR [20] = target: T5, mDOR; assay: Radioligand competition binding ([125I]IBNtxA), CHO membranes, mDOR; conditions: vs 125IBNtxA (0.1 nM), CHO membranes, mean ± SEM

O=C(N[C@@H]1CCC2C3Cc4ccc(O)c5c4C2(CCN3CC2CC2)C1O5)c1cccc(I)c1 (stereo partly drawn) [MP1202, N-((7R,1265)-3-(Cyclopropylmethyl)-9-hydroxy-2,3,4,4a,5,6,7,7a-octahydro-1H-4,12-methanobenzofuro[3,2-e]isoquinolin-7-yl)-3-iodobenzamide]
Emax (mMOR [1]): 68 ± 1% | Bias factor toward G-protein, mMOR [2]: 58 | Emax [2]: 61 ± 1.5% | Emax [3]: 103 ± 4.6% | Bias factor toward G-protein, Y312W-hKOR (Y312W-hKOR [4]; cAMP inhibition vs Tango, against U50,488H as control): 33 and 34 | EC50 (Y312W-hKOR [4]; cAMP inhibition, read-out: Gi pEC50±SEM Y312W-hKOR (converted)): 0.0204 nM | Emax (Y312W-hKOR [4]; read-out: Gi Emax Y312W-hKOR): 101 ± 1.5% | Emax (mDOR [5]): 71 ± 2% | Emax (hMOR [6]): 53 ± 2% | EC50 (hMOR [6]; Tango): 26.8 nM | EC50 (hDOR [7]; hDOR, Tango): 18.1 nM | Emax (hDOR [7]): 26 ± 3.1% | Emax (mKOR [8]): 94 ± 5% | Emax [9]: 77 ± 5% | EC50 ([9]; BRET): 1.44 nM | Emax (Y312W-hKOR [10]): 55 ± 2.6% | EC50 (Y312W-hKOR [10]; Tango): 3.4 nM | arrestin recruitment at Y312W-hKOR (Y312W-hKOR [10]; Tango, compared with wild-type KOR): reduced arrestin recruitment | EC50 [11]: 525 nM | Emax [11]: 26 ± 2.3% | Bias factor toward G-protein, rKOR [12]: 0.39 and 0.4 | EC50 ([12]; BRET): 0.134 nM | Emax [12]: 104 ± 2% | EC50 (hDOR [13]; hDOR): 8.18 nM | Emax (hDOR [13]): 99 ± 2.2% | Emax (hKOR [14]): 101 ± 1% | EC50 (hKOR [14]; Tango, WT-hKOR): 0.0457 nM | Emax (hKOR [15]): 110 ± 1% | Bias factor toward G protein, hKOR (hKOR [15]): 0.6 | EC50 (hKOR [15]; cAMP inhibition): 0.0016 nM | Bias factor toward G protein, hMOR (hMOR [16]): 31 | EC50 (hMOR [16]): 0.077 nM | Emax (hMOR [16]): 92 ± 1.4% | Emax ([17]; read-out: Arrestin Emax mMOR): 53 ± 1.6%

O=C(N[C@@H]1CC[C@@]2(O)C3Cc4ccc(O)cc4[C@@]2(CCN3CC2CC2)C1)c1cccc(I)c1 [MP1601, N-((4bR,6R,8aS)-11-(Cyclopropylmethyl)-3,8a-dihydroxy-6,7,8,8a,9,10-hexahydro-5H-9,4b-(epiminoethano)phenanthren-6-yl)-3-iodobenzamide]
Emax (mMOR [1]): 45 ± 4.6% | EC50 (mMOR [1]; [35S]GTPγS, nM ± SEM): 0.5 ± 0.2 nM | Ki (mKOR [18]): 2.13 ± 0.3 nM | Gi pEC50±SEM mMOR [2]: 8.6±0.3 | EC50 ([2]; read-out: Gi EC50 mMOR): 2.2 nM | Emax [2]: 49 ± 3% | G-Protein activation pEC50 ± SEM ([3]; mDOR, BRET): 8.2 ± 0.20 | Emax [3]: 105 ± 6.7% | Emax (mDOR [5]): 67 ± 3.9% | EC50 (mDOR [5]; [35S]GTPγS, nM ± SEM): 10 ± 1.6 nM | Emax (hMOR [6]): 27 ± 2% | Arrestin pEC50±SEM hMOR (hMOR [6]; Tango): 8.4±0.2 | Ki (mMOR [19]): 0.2 ± 0.01 nM | Arrestin recruitment pEC50 ± SEM (hDOR [7]; hDOR, Tango): 7.1 ± 0.06 | EC50 (hDOR [7]; hDOR, Tango): 86.7 nM | Emax (hDOR [7]): 203 ± 5.4% | Emax (mKOR [8]): 72 ± 4.5% | EC50 (mKOR [8]; [35S]GTPγS, nM ± SEM): 3 ± 0.7 nM | Emax [9]: 37 ± 3% | Arrestin pEC50±SEM rKOR ([9]; BRET): 7.2±0.23 | EC50 ([9]; BRET): 56.5 nM | EC50 [11]: 9 nM | Emax [11]: 16 ± 1.4% | Gi pEC50±SEM rKOR ([12]; BRET): 8.1±0.12 | Bias factor toward G-protein, rKOR [12]: 0.9 | EC50 ([12]; BRET): 8.9 nM | Emax [12]: 75 ± 3% | EC50 (hDOR [13]; hDOR): 2.76 nM | cAMP inhibition pEC50 ± SEM (hDOR [13]; hDOR): 8.6 ± 0.06 | Emax (hDOR [13]): 106 ± 2.3% | Emax (hKOR [14]): 107 ± 3% | Arrestin pEC50±SEM hKOR (hKOR [14]; Tango, WT-hKOR): 8.49±0.07 | Emax (hKOR [15]): 109 ± 1% | Gi pEC50±SEM hKOR (hKOR [15]; cAMP inhibition): 9.76±0.05 | Bias factor toward G protein, hKOR (hKOR [15]): 0.15 | EC50 (hKOR [15]; cAMP inhibition): 0.17 nM | Bias factor toward G protein, hMOR (hMOR [16]): 4 | Gi pEC50±SEM hMOR (hMOR [16]): 9.99±0.09 | Emax (hMOR [16]): 69 ± 1% | EC50 (hMOR [16]; read-out: Gi EC50 hMOR): 0.1 nM | arrestin recruitment at mMOR [17]: no arrestin recruitment was observed | Ki (mDOR [20]): 5.37 ± 0.9 nM

Reference: patent US11613547B2 (priority 2019, dated 2023)
